Laboratory results published in patent publication US9085550B2, “Ligands for estrogen related receptors and methods for synthesis of said ligands” (CITY OF HOPE, priority 2005, dated 2015).
Each block holds one compound with its values, some of them ahead of it.

Key:
[1] = biological target: T1, ERRγ (Homo sapiens, UniProt P62508); settings: background statement; cited from earlier work
T1 sequence (P62508 1-458): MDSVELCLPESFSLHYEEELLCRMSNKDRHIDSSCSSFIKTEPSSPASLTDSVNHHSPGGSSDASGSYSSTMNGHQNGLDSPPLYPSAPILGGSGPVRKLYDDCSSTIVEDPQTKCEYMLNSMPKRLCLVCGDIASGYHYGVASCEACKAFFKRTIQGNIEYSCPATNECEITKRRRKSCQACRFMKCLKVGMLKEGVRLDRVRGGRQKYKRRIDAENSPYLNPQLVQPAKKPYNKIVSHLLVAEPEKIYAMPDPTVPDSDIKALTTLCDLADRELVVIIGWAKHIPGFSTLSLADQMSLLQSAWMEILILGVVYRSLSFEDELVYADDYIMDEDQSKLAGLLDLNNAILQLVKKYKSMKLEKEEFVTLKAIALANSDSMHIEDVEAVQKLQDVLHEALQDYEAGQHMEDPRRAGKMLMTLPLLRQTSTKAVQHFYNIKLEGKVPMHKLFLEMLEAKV

[2] = biological target: T2, GAL-L-hERRb (human ERRβ ligand binding domain fused to GAL4 DNA binding domain) (Homo sapiens, UniProt O95718); assay: GAL4 reporter transactivation assay in CV-1 cells, GAL-L-hERRb; format: cell-based
T2 construct: expressed in transfected cells; host or cells: CV-1
T2 sequence (O95718 208-432 limits assumed): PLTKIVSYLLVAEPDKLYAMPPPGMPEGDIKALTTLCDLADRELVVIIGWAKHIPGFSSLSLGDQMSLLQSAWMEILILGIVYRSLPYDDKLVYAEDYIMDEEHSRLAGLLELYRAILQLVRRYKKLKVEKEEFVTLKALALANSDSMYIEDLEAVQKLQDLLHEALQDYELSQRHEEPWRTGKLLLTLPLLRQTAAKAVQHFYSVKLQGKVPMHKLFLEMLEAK

[3] = biological target: T3, HRHN-GAL (yeast GAL4 DNA binding domain without receptor sequences) (Saccharomyces cerevisiae, UniProt P04386); assay: GAL4 reporter transactivation assay in CV-1 cells, control vector without receptor; format: cell-based, monkey
T3 construct: expressed in transfected cells; host or cells: CV-1
T3 sequence (P04386 1-147): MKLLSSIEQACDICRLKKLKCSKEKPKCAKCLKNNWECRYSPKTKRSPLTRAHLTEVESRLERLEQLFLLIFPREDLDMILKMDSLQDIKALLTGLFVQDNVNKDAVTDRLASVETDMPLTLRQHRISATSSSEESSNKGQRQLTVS

[4] = biological target: T4, human ERα (Homo sapiens, UniProt P03372); assay: ERE-TK-luc reporter transactivation assay in CV-1 cells, full-length hERa; format: cell-based
T4 construct: Human ERα and ERβ were examined as full-length proteins using an estrogen receptor responsive reporter construct; expressed in transfected cells; host or cells: CV-1
T4 sequence (P03372 1-595): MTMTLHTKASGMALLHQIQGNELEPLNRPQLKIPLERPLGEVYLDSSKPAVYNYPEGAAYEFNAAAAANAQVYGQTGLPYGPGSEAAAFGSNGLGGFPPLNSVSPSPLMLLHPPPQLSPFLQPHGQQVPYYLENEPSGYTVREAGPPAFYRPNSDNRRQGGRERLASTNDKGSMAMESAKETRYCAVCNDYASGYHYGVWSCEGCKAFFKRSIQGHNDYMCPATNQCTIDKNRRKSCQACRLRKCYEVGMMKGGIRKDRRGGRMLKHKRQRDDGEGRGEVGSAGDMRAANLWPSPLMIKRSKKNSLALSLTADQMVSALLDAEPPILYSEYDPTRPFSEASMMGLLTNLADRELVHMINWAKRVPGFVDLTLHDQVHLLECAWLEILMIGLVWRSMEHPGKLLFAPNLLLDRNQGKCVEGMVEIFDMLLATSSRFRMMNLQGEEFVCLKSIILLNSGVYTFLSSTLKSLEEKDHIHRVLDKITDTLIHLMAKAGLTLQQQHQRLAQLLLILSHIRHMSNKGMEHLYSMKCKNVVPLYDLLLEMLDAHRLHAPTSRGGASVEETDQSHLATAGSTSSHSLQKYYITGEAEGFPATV
Protocol: (§1) Human ERα and ERβ were examined as full-length proteins using an estrogen receptor responsive reporter construct.
(§2) Suitable reporter gene constructs are well known to skilled workers in the fields of biochemistry and molecular biology. […] Other vectors known in the art can be used in the methods of the present invention.
(§3) CV-1 cells for the activation assays were grown in Dulbecco's modified Eagle's medium supplemented with 10% resin charcoal-stripped fetal bovine serum, 50 U/ml penicillin G and 50 μg/ml streptomycin sulfate (DMEM-FBS) at 37° C. in 5% CO2. One day prior to transfection, cells were plated to 50-80% confluence using phenol red free DMEM-FBS.

[5] = biological target: T5, human ERβ (Homo sapiens, UniProt Q92731); assay: ERE-TK-luc reporter transactivation assay in CV-1 cells, full-length hERb; format: cell-based
T5 construct: Human ERα and ERβ were examined as full-length proteins using an estrogen receptor responsive reporter construct; expressed in transfected cells; host or cells: CV-1
T5 sequence (Q92731 whole entry): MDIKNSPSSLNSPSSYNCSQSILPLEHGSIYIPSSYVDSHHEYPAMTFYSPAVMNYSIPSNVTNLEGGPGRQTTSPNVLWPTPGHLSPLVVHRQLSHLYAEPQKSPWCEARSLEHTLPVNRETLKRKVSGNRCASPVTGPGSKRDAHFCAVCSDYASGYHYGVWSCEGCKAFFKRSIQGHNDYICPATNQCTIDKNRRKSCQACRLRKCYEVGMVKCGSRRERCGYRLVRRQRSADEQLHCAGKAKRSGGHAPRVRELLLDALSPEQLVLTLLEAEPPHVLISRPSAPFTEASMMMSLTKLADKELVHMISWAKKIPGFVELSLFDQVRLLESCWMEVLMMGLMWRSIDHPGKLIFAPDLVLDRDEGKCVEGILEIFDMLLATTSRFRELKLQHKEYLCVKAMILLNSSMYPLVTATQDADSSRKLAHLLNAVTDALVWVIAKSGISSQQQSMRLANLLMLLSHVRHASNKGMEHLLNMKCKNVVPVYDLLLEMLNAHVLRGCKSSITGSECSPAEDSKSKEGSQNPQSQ
Protocol: as §1, §2, §3

[6] = biological target: T6, GAL-mERRg (mouse ERRγ ligand binding domain fused to GAL4 DNA binding domain) (Mus musculus, UniProt P62509); assay: GAL4 reporter transactivation assay in CV-1 cells, GAL-mERRg; format: cell-based
T6 construct: expressed in transfected cells; host or cells: CV-1
T6 sequence (P62509 233-457 limits assumed): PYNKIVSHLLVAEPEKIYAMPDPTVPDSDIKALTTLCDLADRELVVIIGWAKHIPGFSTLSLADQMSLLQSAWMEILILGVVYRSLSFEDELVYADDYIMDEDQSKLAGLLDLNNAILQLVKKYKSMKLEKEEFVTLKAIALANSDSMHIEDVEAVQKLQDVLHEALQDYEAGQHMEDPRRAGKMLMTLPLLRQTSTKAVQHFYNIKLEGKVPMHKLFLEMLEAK

[7] = biological target: T7, GAL-hERRa (human ERRα ligand binding domain fused to GAL4 DNA binding domain) (Homo sapiens, UniProt P11474); assay: GAL4 reporter transactivation assay in CV-1 cells, GAL-hERRa; format: cell-based
T7 construct: expressed in transfected cells; host or cells: CV-1
T7 sequence (P11474 193-421 limits assumed): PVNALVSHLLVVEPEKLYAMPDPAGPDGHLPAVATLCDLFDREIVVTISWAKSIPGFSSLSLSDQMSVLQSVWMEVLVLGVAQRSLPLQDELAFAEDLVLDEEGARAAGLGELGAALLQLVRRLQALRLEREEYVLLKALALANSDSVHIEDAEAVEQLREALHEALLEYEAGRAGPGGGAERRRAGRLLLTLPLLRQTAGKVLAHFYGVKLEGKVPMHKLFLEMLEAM

[8] = CV-1, reporter 0.42:vector 0.00875:PGC-1a 0.035, 30 μM
[9] = CV-1, reporter 0.42:vector 0.00875, no PGC-1a, 30 μM

SMILES: COc1cc(/C=C(\C#N)C(=O)Nc2nnc(C(F)(F)F)s2)ccc1OCc1ccc(C(F)(F)F)cc1C(F)(F)F [XCT790]
Activity on ERRγ [1]: no activity

SMILES: O=C(NN=Cc1ccc(C(F)(F)F)c([N+](=O)[O-])c1)c1ccc(O)cc1 [DY170, 4-Hydroxy-benzoic acid (3-nitro-4-trifluoromethyl-benzylidene)-hydrazide]
melting point: 279.6 °C

SMILES: O=C(NN=Cc1ccc(C(F)(F)F)cc1)c1ccc(O)cc1 [DY168, 4-Hydroxy-benzoic acid (4-trifluoromethyl-benzylidene)-hydrazide]
melting point: 260.5 °C

SMILES: Oc1nc(Cl)nc(NN=Cc2cc(C(F)(F)F)cc(C(F)(F)F)c2)n1 [DY176, 4-[N′-(3,5-Bis-trifluoromethyl-benzylidene)-hydrazino]-6-chloro-[1,3,5]triazin-2-ol]
melting point: 258.3 °C

SMILES: CCc1ccc(C=NNC(=O)c2ccc(O)cc2)s1 [DY164, 4-Hydroxy-benzoic acid (5-ethyl-thiophen-2-ylmethylene)-hydrazide]
Fold activation, GAL-L-hERRb + PGC-1a [2, 8]: 2.34 fold | Fold activation, GAL-L-hERRb [2, 9]: 1.89 fold | Activation of ERRβ ([2]; in the presence of PGC-1a): can activate | Fold activation, HRHN-GAL ([3]; reporter 0.42:vector 0.00875, no PGC-1a, 30 μM): 1.46 fold | Fold activation, HRHN-GAL + PGC-1a ([3]; reporter 0.42:vector 0.00875:PGC-1a 0.035, 30 μM): 1.62 fold | Fold Activation, ERE-TK-luc, hERa ([4]; Table 7, CV-1, drug conc 30 μM): 1.30 fold | Activation of ERa ([4]; specificity for ERRs): do not activate | Fold Activation, ERE-TK-luc, hERb ([5]; Table 7, CV-1, drug conc 30 μM): 1.74 fold | Activation of ERb ([5]; specificity for ERRs): do not activate | Fold activation, GAL-mERRg + PGC-1a [6, 8]: 2.45 fold | Fold activation, GAL-mERRg [6, 9]: 2.10 fold | Activation of ERRγ ([6]; in the presence of PGC-1a): can activate | melting point: 194.5 °C | Fold activation, GAL-hERRa + PGC-1a [7, 8]: 2.75 fold | Fold activation, GAL-hERRa [7, 9]: 1.74 fold | Activation of ERRα ([7]; in the presence of PGC-1a): can activate

SMILES: O=C(NN=Cc1cccc(C(F)(F)F)c1Cl)c1ccc(O)cc1 [DY165, 4-Hydroxy-benzoic acid (2-chloro-3-trifluoromethyl-benzylidene)-hydrazide]
melting point: 261.5 °C

Other lines, results leading:

melting point: 60.5 °C
SMILES: CCc1ccc(C=NNC(=O)c2ccc(O)cc2)o1 [DY175, 4-Hydroxy-benzoic acid (5-ethyl-furan-2-ylmethylene)-hydrazide]

melting point: 235.4 °C
SMILES: Cc1[nH]c(C=NNC(=O)c2ccc(O)cc2)c(C)c1Br [DY172, 4-Hydroxy-benzoic acid (4-bromo-3,5-dimethyl-1H-pyrrol-2-ylmethylene)-hydrazide]

melting point: 215.7 °C
SMILES: Cc1ccc(C=NNC(=O)c2ccc(O)cc2)s1 [DY166, 4-Hydroxy-benzoic acid (5-methyl-thiophen-2-ylmethylene)-hydrazide]

melting point: 251.4 °C
SMILES: Cc1cc(C=NNC(=O)c2ccc(O)cc2)oc1C [DY173, 4-Hydroxy-benzoic acid (4,5-dimethyl-furan-2-ylmethylene)-hydrazide]

melting point: 261.2 °C
SMILES: Cc1cc(C)c(C=NNC(=O)c2ccc(O)cc2)[nH]1 [DY171, 4-Hydroxy-benzoic acid (3,5-dimethyl-1H-pyrrol-2-ylmethylene)-hydrazide]
